Measurements from patent publication US7745619B2, “Vinca derivatives” (priority 2003, dated 2010).
Like-named read-outs stand apart in the source and are kept apart here.

Assays:
HeLa S-3 cells = experiment: HeLa GI50 determination (SRB growth inhibition); format: cell-based, human; settings: Homo sapiens, HeLa S3, 48 h
How it was run: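 Cells plated at 2×10^4/well; day-0 plate TCA-fixed, test compounds added at 10-fold dilutions for 2 days. SRB staining, absorbance at 490 nm; GI = 100×(T−T0)/(C−T0), GI50 from growth inhibition vs. concentration plots.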

MCF-7 cells = experiment: MCF-7 GI50 determination (crystal violet growth inhibition); format: cell-based, human; settings: Homo sapiens, MCF7, 96 h
How it was run: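 MCF-7 cells seeded at 2×10^4 cells/well, grown 24 h drug-free, then exposed to 10-fold compound dilutions for 4 days. Glutaraldehyde-fixed cells stained with crystal violet, absorbance read at 570 nm; GI=100×(T/T0) against day-0 control OD, GI50 from growth inhibition versus concentration plots.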

[1] = read-out: MCF-7 Cells GI50 (nM)
[2] = HeLa S-3 cells, 2 days of treatment, sulforhodamine B, read-out: HeLa Cells GI50
[3] = MCF-7 cells, 4 days of treatment, crystal violet, read-out: MCF-7 Cells GI50

Structure (SMILES)	GI50 (HeLa S-3 cells; read-out: HeLa Cells GI50 (nM))	GI50 (MCF-7 cells; [1])	melting point	GI50 (HeLa S-3 cells; [2])	GI50 (MCF-7 cells; [3])
CC[C@]1(O)C[C@H]2CN(CCc3c([nH]c4ccc(SCc5ccccc5Cl)cc34)[C@@](C(=O)OC)(c3cc4c(cc3OC)N(C=O)[C@H]3[C@@](O)(C(=O)OC)[C@H](OC(C)=O)[C@]5(CC)C=CCN6CC[C@]43[C@@H]65)C2)C1 [Example 37, 12′-(2-chlorobenzylsulfanyl)vinblastine]	100 nM	200 nM	168 to 170 °C	–	–
CC[C@]1(O)C[C@H]2CN(CCc3c([nH]c4ccc(-c5cccc(OC)c5)cc34)[C@@](C(=O)OC)(c3cc4c(cc3OC)N(C)[C@H]3[C@@](O)(C(=O)OC)[C@H](OC(C)=O)[C@]5(CC)C=CCN6CC[C@]43[C@@H]65)C2)C1 [Example 9, 12′-(3-methoxyphenyl) vinblastine]	300 nM	500 nM	–	–	–
CC[C@]1(O)C[C@H]2CN(CCc3c([nH]c4ccc(-c5cccc(F)c5)cc34)[C@@](C(=O)OC)(c3cc4c(cc3OC)N(C)[C@H]3[C@@](O)(C(=O)OC)[C@H](OC(C)=O)[C@]5(CC)C=CCN6CC[C@]43[C@@H]65)C2)C1 [Example 11, 12′-(3-fluorophenyl) vinblastine]	300 nM	300 nM	–	–	–
CCSc1ccc2[nH]c3c(c2c1)CCN1C[C@H](C[C@@](O)(CC)C1)C[C@]3(C(=O)OC)c1cc2c(cc1OC)N(C=O)[C@H]1[C@@](O)(C(=O)OC)[C@H](OC(C)=O)[C@]3(CC)C=CCN4CC[C@]21[C@@H]43 [Example 40, 12′-(ethylsulfanyl) vincristine]	–	–	–	6 nM	8 nM
CCC1=C[C@H]2CN(CCc3c([nH]c4ccc(I)cc34)[C@@](C(=O)OC)(c3cc4c(cc3OC)N(C)[C@H]3[C@@](O)(C(=O)OC)[C@H](OC(C)=O)[C@]5(CC)C=CCN6CC[C@]43[C@@H]65)C2)C1 [Example 98, 12′-iodoanhydro vinblastine]	50 nM	305 nM	–	–	–
CCCCCCc1ccc2[nH]c3c(c2c1)CCN1C[C@H](C[C@@](O)(CC)C1)C[C@]3(C(=O)OC)c1cc2c(cc1OC)N(C=O)[C@H]1[C@@](O)(C(=O)OC)[C@H](OC(C)=O)[C@]3(CC)C=CCN4CC[C@]21[C@@H]43 [Example 74, 12′-hexylvincristine]	–	–	–	30 nM	40 nM
CCc1cc2[nH]c3c(c2cc1C)CCN1C[C@H](C[C@@](O)(CC)C1)C[C@]3(C(=O)OC)c1cc2c(cc1OC)N(C=O)[C@H]1[C@@](O)(C(=O)OC)[C@H](OC(C)=O)[C@]3(CC)C=CCN4CC[C@]21[C@@H]43 [Example 94, 13′-ethyl-12′-methyl vincristine]	30 nM	50 nM	–	–	–
CC[C@]1(O)C[C@H]2CN(CCc3c([nH]c4ccc(SSC(C)(C)C)cc34)[C@@](C(=O)OC)(c3cc4c(cc3OC)N(C)[C@H]3[C@@](O)(C(=O)OC)[C@H](OC(C)=O)[C@]5(CC)C=CCN6CC[C@]43[C@@H]65)C2)C1 [Example 59, 12′-(tert-butyldisulfanyl) vinblastine]	300 nM	300 nM	–	–	–
CC[C@]1(O)C[C@H]2CN(CCc3c([nH]c4ccc(SC)cc34)[C@@](C(=O)OC)(c3cc4c(cc3OC)N(C=O)[C@H]3[C@@](O)(C(=O)OC)[C@H](OC(C)=O)[C@]5(CC)C=CCN6CC[C@]43[C@@H]65)C2)C1 [Example 42, 12′-(methylsulfanyl) vincristine]	–	–	–	3 nM	3 nM
CC[C@]1(O)C[C@H]2CN(CCc3c([nH]c4ccc(-c5ccccc5)cc34)[C@@](C(=O)OC)(c3cc4c(cc3OC)N(C)[C@H]3[C@@](O)(C(=O)OC)[C@H](OC(C)=O)[C@]5(CC)C=CCN6CC[C@]43[C@@H]65)C2)C1 [Example 6, 12′-phenylvinblastine]	400 nM	300 nM	–	–	–
CCC1=C[C@H]2CN(CCc3c([nH]c4ccc(Br)cc34)[C@@](C(=O)OC)(c3cc4c(cc3OC)N(C=O)[C@H]3[C@@](O)(C(=O)OC)[C@H](OC(C)=O)[C@]5(CC)C=CCN6CC[C@]43[C@@H]65)C2)C1 [Example 99, 12′-bromoanhydro vincristine]	–	–	–	4 nM	1 nM
CCc1ccc2[nH]c3c(c2c1)CCN1C[C@H](C[C@@](O)(CC)C1)C[C@]3(C(=O)OC)c1cc2c(cc1OC)N(C)[C@H]1[C@@](O)(C(=O)OC)[C@H](OC(C)=O)[C@]3(CC)C=CCN4CC[C@]21[C@@H]43 [Example 77, 12′-ethylvinblastine]	–	–	–	0.3 nM	0.6 nM
CCc1cc2[nH]c3c(c2cc1CC)CCN1C[C@H](C[C@@](O)(CC)C1)C[C@]3(C(=O)OC)c1cc2c(cc1OC)N(C=O)[C@H]1[C@@](O)(C(=O)OC)[C@H](OC(C)=O)[C@]3(CC)C=CCN4CC[C@]21[C@@H]43 [Example 95, 12′,13′-diethylvincristine]	20 nM	30 nM	–	–	–
CCc1ccc2[nH]c3c(c2c1)CCN1C[C@H](C[C@@](O)(CC)C1)C[C@]3(C(=O)OC)c1cc2c(cc1OC)N(C=O)[C@H]1[C@@](O)(C(=O)OC)[C@H](OC(C)=O)[C@]3(CC)C=CCN4CC[C@]21[C@@H]43 [Example 78, 12′-ethylvincristine]	–	–	–	5 nM	10 nM
CC[C@]1(O)C[C@H]2CN(CCc3c([nH]c4ccc(Sc5ccccc5O)cc34)[C@@](C(=O)OC)(c3cc4c(cc3OC)N(C)[C@H]3[C@@](O)(C(=O)OC)[C@H](OC(C)=O)[C@]5(CC)C=CCN6CC[C@]43[C@@H]65)C2)C1 [Example 55, 12′-(2-hydroxyphenylsulfanyl)vinblastine]	19 nM	6 nM	–	–	–
CC[C@]1(O)C[C@H]2CN(CCc3c([nH]c4ccc(Nc5ccc(C(F)(F)F)cc5)cc34)[C@@](C(=O)OC)(c3cc4c(cc3OC)N(C)[C@H]3[C@@](O)(C(=O)OC)[C@H](OC(C)=O)[C@]5(CC)C=CCN6CC[C@]43[C@@H]65)C2)C1 [Example 84, 12′-(4-trifluoromethylphenylamino)vinblastine]	30 nM	500 nM	–	–	–
CC[C@]1(O)C[C@H]2CN(CCc3c([nH]c4ccc(C(=O)NC)cc34)[C@@](C(=O)OC)(c3cc4c(cc3OC)N(C)[C@H]3[C@@](O)(C(=O)OC)[C@H](OC(C)=O)[C@]5(CC)C=CCN6CC[C@]43[C@@H]65)C2)C1 [Example 69, 12′-N-(methylaminocarbonyl)vinblastine]	600 nM	> 1000 nM	–	–	–
